The text below walks through data of US20250154198A1, “PEPTIDE INHIBITORS OF INTERLEUKIN-23 RECEPTOR” (Zealand Pharma A/S, priority 2021, published 2025).

Like-named read-outs stand apart in the source and are kept apart here. *1 amine or outer side, *2 acyl side, *3 side chain or, on linkers, in order; H or OH if unused. Where a SMILES comes first, the peptide text is derived from it. Bridges are numbered along the chain shown (N, C = ends). [ ]: non-standard residue; d: D form. 2Nal = N[C@@H](Cc1ccc2ccccc2c1)C(=O)O; AEF = NCCOc1ccc(C[C@H](N)C(=O)O)cc1; CH2COCH2 = O=C(C[*:1])C[*:2]

One experiment has as its target T1, human IL-23R (Homo sapiens, UniProt Q5VWK5).
T1 construct: UniProtKB—Q5VWK5, amino acids 22-629; secretion signal of the plasmid (Promega N1371); expressed in transfected cells
T1 sequence (Q5VWK5 22-629): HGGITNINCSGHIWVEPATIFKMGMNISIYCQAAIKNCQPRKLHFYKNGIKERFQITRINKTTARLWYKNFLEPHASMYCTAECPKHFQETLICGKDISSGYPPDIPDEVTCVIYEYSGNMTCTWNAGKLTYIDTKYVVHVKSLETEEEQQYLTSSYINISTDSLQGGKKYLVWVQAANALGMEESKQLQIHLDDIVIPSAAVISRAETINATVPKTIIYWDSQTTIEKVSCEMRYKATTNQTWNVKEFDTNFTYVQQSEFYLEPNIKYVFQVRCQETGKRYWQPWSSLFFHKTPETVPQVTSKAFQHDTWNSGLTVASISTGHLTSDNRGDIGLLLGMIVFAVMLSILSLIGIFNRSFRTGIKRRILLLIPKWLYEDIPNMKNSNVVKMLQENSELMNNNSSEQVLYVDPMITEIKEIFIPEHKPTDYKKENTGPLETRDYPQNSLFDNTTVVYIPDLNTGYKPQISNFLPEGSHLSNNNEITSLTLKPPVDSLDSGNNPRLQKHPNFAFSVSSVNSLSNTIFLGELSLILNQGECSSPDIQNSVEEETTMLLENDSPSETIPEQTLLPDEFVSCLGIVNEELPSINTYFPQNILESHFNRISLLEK
As to the kind of experiment: Binding assay (NanoBRET displacement of fluorophore-labelled reference compound) for estimating binding affinity to human IL-23R.

Experiment [1] concerns the target IL-23 mediated phospho-STAT3 formation in DB cells (Homo sapiens, UniProt Q5VWK5). Briefly: Functional inhibition of IL-23 mediated STAT3 signalling (phospho-STAT3 Tyr705 MSD) in DB cells. In kind it is cell-based. The following applies: DB cells, read-out: IC50 (pSTAT3). The text has this: Functional Inhibition of IL-23 Mediated STAT3 Signalling by Compounds
Upon binding of IL-23, the IL-23R forms a heterodimer signalling complex together with IL-12R β1, which through the JAK2/STAT3 pathway promotes phosphorylation of STAT3 to form phospho-STAT3.
The assay was used to quantify the functional antagonism of a compound and to rank order the inhibitor compounds according to their potency. For compounds tested in this assay, the response was normalized relative to control values to calculate the IC50 and maximal inhibitory response from a concentration response curve of the compound in presence of a fixed concentration of human IL-23.
The assay procedure was as follows. […] Following preincubation of the DB cells with inhibitor for 15 min in a cell incubator (37° C., 5% CO2), 20 μL of the prepared 3× the EC80 of hIL-23 solution was added to each well and incubated for 90 min in a cell incubator (37° C., 5% CO2). For some wells buffer only or IL-23 only corresponding to the EC80 was added to obtain readouts needed for normalization. To terminate the assay, the plate was spun at 1000 G for 5 min to pellet cells, the supernatant removed using an 8-channel manual pipette, and then added 50 μL/well Complete Lysis Buffer from the MSD STAT3 kit (Cat #K150SVD, Mesoscale) to the cell pellet. To completely lyse cells to release phospho-STAT3 for detection, the plate was shaken for 10 min at room temperature (500 rpm) sealed with aluminum foil and placed at −80° C. for a minimum of 15 min. Detection of the phospho-STAT3 level in the cell lysate from the individual wells was determined using the MSD STAT3 kit (Cat #K150SVD, Mesoscale) and read on a Meso QuickPlex SQ 120 plate reader (Mesoscale).
For data analysis raw data counts from the Meso QuickPlex SQ 120 plate reader were normalized relative to the response by the EC80 of hIL-23 alone (no compound added) and the buffer level. Compound potency (IC50) and maximal inhibitory response (% inhibition) were estimated by computer-aided curve fitting using a 4-parameter logistic (4PL) non-linear model.

[2] abbreviates: Table 2-7b, read-out: Ki IL-23R.
Where [3] appears, read: Table 3-1, read-out: Ki hIL-23R.

On to `CC(=O)N[C@@H](CC(=O)O)C(=O)N[C@H]1CCCCNC(=O)CC[C@@H](C(=O)N[C@@H](CCCNC(=N)N)C(N)=O)NC(=O)[C@H](CC(C)C)NC(=O)[C@H](Cc2ccc3ccccc3c2)NC(=O)[C@H](Cc2c[nH]c3ccccc23)NC(=O)[C@@H]2CSCc3ccccc3CSC[C@H](NC(=O)[C@H](CO)NC1=O)C(=O)N[C@@H](Cc1c[nH]c3ccccc13)C(=O)N[C@@H](CCC(N)=O)C(=O)N2` [Compound 20, [Ac]-DK(1c)SC(2d)WQC(2d)W[2-Nal]LE(1c)R-[NH2]] (HELM PEPTIDE1{[ac].D.K.S.C.W.Q.C.W.[O=C([C@H](Cc1ccc2ccccc2c1)N[*:1])[*:2]].L.E.R.[am]}|CHEM1{[c1ccc(C[*:2])c(C[*:1])c1]}$PEPTIDE1,PEPTIDE1,3:R3-12:R3|PEPTIDE1,CHEM1,5:R3-1:R1|PEPTIDE1,CHEM1,8:R3-1:R2$$$V2.0), for which, on human IL-23R (setting [2]), the Ki (as a rule, a measure of affinity in units of concentration, obtained from inhibition or displacement) is 24.6 nM. Further, the IC50 (usually the concentration at which inhibition is half-maximal) in experiment [1] (Table 2-7b) came out at 79.2 nM.

Consider `CSCC[C@@H]1NC(=O)[C@H](CO)NC(=O)[C@@H](NC(=O)[C@H](CC(=O)O)NC(C)=O)CCC(=O)NCCCC[C@@H](C(=O)N[C@@H](CCCNC(=N)N)C(N)=O)NC(=O)[C@H](CC(C)C)NC(=O)[C@H](Cc2c[nH]c3ccccc23)NC(=O)[C@H](Cc2c[nH]c3ccccc23)NC(=O)[C@H](CCSC)NC(=O)[C@H](CCC(N)=O)NC(=O)[C@H](Cc2c[nH]c3ccccc23)NC1=O` [Ref 4, reference compound] (HELM PEPTIDE1{[ac].D.E.S.M.W.Q.M.W.W.L.K.R.[am]}$PEPTIDE1,PEPTIDE1,3:R3-12:R3$$$V2.0), for which, on human IL-23R (setting [3]), the Ki is greater than 1000 nM. Also, the concentration for half-maximal inhibition (IC50) in experiment [1] (Table 3-1) was greater than 1000 nM.

As for `CC(C)C[C@@H]1NC(=O)[C@H](Cc2c[nH]c3ccccc23)NC(=O)[C@H](Cc2c[nH]c3ccccc23)NC(=O)[C@@H]2CSCC(=O)CSC[C@H](NC(=O)[C@H](CO)NC(=O)[C@@H](NC(=O)[C@@H](N)CC(=O)O)CCC(=O)NCCCC[C@@H](C(=O)N[C@@H](CCCNC(=N)N)C(N)=O)NC1=O)C(=O)N[C@@H](Cc1c[nH]c3ccccc13)C(=O)N[C@@H](CCC(N)=O)C(=O)N2` [Compound 4, H-DE(1c)SC(2a)WQC(2a)WWLK(1c)R-[NH2]] (HELM PEPTIDE1{D.E.S.C.W.Q.C.W.W.L.K.R.[am]}|CHEM1{[O=C(C[*:1])C[*:2]]}$PEPTIDE1,PEPTIDE1,2:R3-11:R3|PEPTIDE1,CHEM1,4:R3-1:R1|PEPTIDE1,CHEM1,7:R3-1:R2$$$V2.0), the “potency depending on location of the amide bond in the [2,11] lactam bridge (in words)” value at human IL-23R (Compound 7 (amide closer to position 11) versus Compound 4 (closer to position 2), Table 2-3b) is on record as “less active”. Further, the IC50 in experiment [1] (Table 2-3b), in experiment [1] (Table 2-4b) and in experiment [1] (Table 2-5b) was greater than 1000 nM in each case.

On to `CC(=O)N[C@@H](CC(=O)O)C(=O)N[C@H]1CCCCNC(=O)CC[C@@H](C(=O)N[C@@H](CCCNC(=N)N)C(N)=O)NC(=O)[C@H](CC(C)C)NC(=O)[C@H](Cc2ccc3ccccc3c2)NC(=O)[C@H](Cc2c[nH]c3ccccc23)NC(=O)[C@@H]2CSCc3ccc(cc3)CSC[C@H](NC(=O)[C@H](CO)NC1=O)C(=O)N[C@@H](Cc1c[nH]c3ccccc13)C(=O)N[C@@H](CCC(N)=O)C(=O)N2` [Compound 22, [Ac]-DK(1c)SC(2f)WQC(2f)W[2-Nal]LE(1c)R-[NH2]] (HELM PEPTIDE1{[ac].D.K.S.C.W.Q.C.W.[O=C([C@H](Cc1ccc2ccccc2c1)N[*:1])[*:2]].L.E.R.[am]}|CHEM1{[c1cc(C[*:2])ccc1C[*:1]]}$PEPTIDE1,PEPTIDE1,3:R3-12:R3|PEPTIDE1,CHEM1,5:R3-1:R1|PEPTIDE1,CHEM1,8:R3-1:R2$$$V2.0), for which the Ki at human IL-23R (setting [2]) is 563 nM. Also, the IC50 in experiment [1] (Table 2-7b) and in experiment [1] (Table 3-1) was greater than 1000 nM throughout.

With `CC(C)C[C@@H]1NC(=O)[C@H](Cc2c[nH]c3ccccc23)NC(=O)[C@H](Cc2c[nH]c3ccccc23)NC(=O)[C@@H]2CSCC(=O)CSC[C@H](NC(=O)[C@H](CO)NC(=O)[C@@H](NC(=O)[C@@H](N)CC(=O)O)CCC(=O)NCC[C@@H](C(=O)N[C@@H](CCCNC(=N)N)C(N)=O)NC1=O)C(=O)N[C@@H](Cc1c[nH]c3ccccc13)C(=O)N[C@@H](CCC(N)=O)C(=O)N2` [Compound 9, H-DE(1c)SC(2a)WQC(2a)WWL[Dab](1c)R-[NH2]] (HELM PEPTIDE1{D.E.S.C.W.Q.C.W.W.L.[Dab].R.[am]}|CHEM1{[O=C(C[*:1])C[*:2]]}$PEPTIDE1,PEPTIDE1,2:R3-11:R3|PEPTIDE1,CHEM1,4:R3-1:R1|PEPTIDE1,CHEM1,7:R3-1:R2$$$V2.0), the Ki at human IL-23R (setting [3]) is greater than 1000 nM. In addition, in experiment [1] (Table 3-1), the IC50 was greater than 1000 nM.

On to `CC(=O)N[C@H]1CCCCNC(=O)CC[C@@H](C(=O)N[C@@H](CCCNC(=N)N)C(N)=O)NC(=O)[C@H](CC(C)C)NC(=O)[C@H](Cc2ccc3ccccc3c2)NC(=O)[C@H](Cc2ccc(OCCN)cc2)NC(=O)[C@@H]2CSCC(=O)CSC[C@H](NC(=O)[C@H](CO)NC1=O)C(=O)N[C@@H](Cc1c[nH]c3ccccc13)C(=O)N[C@@H](CCC(N)=O)C(=O)N2` [Compound 29, [Ac]-K(1c)SC(2a)WQC(2a)[Y(2-aminoethoxy)][2-Nal]LE(1c)R-[NH2]] (Ac-KSCWQC[AEF][2Nal]LER-NH2; lactam 1-10; linker 3-6 via CH2COCH2), for which the Ki on human IL-23R (Table 2-9b, read-out: Ki IL-23R) is 0.64 nM; at human IL-23R (setting [3]), 0.68 nM. Moreover, the IC50 in experiment [1] (Table 2-9b) was 19.7 nM.

For `CC(C)C[C@@H]1NC(=O)[C@H](Cc2ccc3ccccc3c2)NC(=O)[C@H](Cc2c[nH]c3ccccc23)NC(=O)[C@@H]2CSCC(=O)CSC[C@H](NC(=O)[C@H](CO)NC(=O)CCNC(=O)CC[C@@H](C(=O)N[C@@H](CCCNC(=N)N)C(N)=O)NC1=O)C(=O)N[C@@H](Cc1c[nH]c3ccccc13)C(=O)N[C@@H](CCC(N)=O)C(=O)N2` [Compound 36, [bAla](1c)*SC(2a)WQC(2a)W[2-Nal]LE(1c)R-[NH2]] (HELM PEPTIDE1{[bAla].S.C.W.Q.C.W.[O=C([C@H](Cc1ccc2ccccc2c1)N[*:1])[*:2]].L.E.R.[am]}|CHEM1{[O=C(C[*:1])C[*:2]]}$PEPTIDE1,CHEM1,3:R3-1:R1|PEPTIDE1,CHEM1,6:R3-1:R2|PEPTIDE1,PEPTIDE1,1:R1-10:R3$$$V2.0), on human IL-23R (setting [3]), the Ki was greater than 1000 nM. Moreover, the IC50 in experiment [1] (Table 3-1) is greater than 1000 nM.

Turning to `CC(=O)N[C@@H](CC(=O)O)C(=O)N[C@H]1CCC(=O)NCCCC[C@@H](C(N)=O)NC(=O)[C@H](CC(C)C)NC(=O)[C@H](Cc2c[nH]c3ccccc23)NC(=O)[C@H](Cc2c[nH]c3ccccc23)NC(=O)[C@@H]2CSCC(=O)CSC[C@H](NC(=O)[C@H](CO)NC1=O)C(=O)N[C@@H](Cc1c[nH]c3ccccc13)C(=O)N[C@@H](CCC(N)=O)C(=O)N2` [Compound 11, [Ac]-DE(1c)SC(2a)WQC(2a)WWLK(1c)-[NH2]] (HELM PEPTIDE1{[ac].D.E.S.C.W.Q.C.W.W.L.K.[am]}|CHEM1{[O=C(C[*:1])C[*:2]]}$PEPTIDE1,PEPTIDE1,3:R3-12:R3|PEPTIDE1,CHEM1,5:R3-1:R1|PEPTIDE1,CHEM1,8:R3-1:R2$$$V2.0), the IC50 in experiment [1] (Table 3-1) is greater than 1000 nM.
